Literature values as cited in patent EP0279778B1, “New strain belonging to genus Thermus, new beta-galactosidase and process for producing same” (Research Development Corporation of Japan, priority 1987, dated 1988).

What was measured:
[1] = test system: Thermus strain 4-1A β-galactosidase (Enzyme of Precedent 3); settings: 56mM
[2] = test system: Bacillus stearothermophilus β-galactosidase (Enzyme of Precedent 5); settings: 10mM

SMILES	Inhibition by reaction product [1] [%]	Inhibition by reaction product [2] [%]
OC[C@H]1OC(O)[C@H](O)[C@@H](O)[C@H]1O (stereo partly shown) [galactose]	52	71
OC[C@H]1OC(O)[C@H](O)[C@@H](O)[C@@H]1O (stereo partly shown) [glucose]	63	20
